Test results reported in BindingDB's records for patent US9688678 (Abbvie Deutschland, 2017).

Biological target: T1, Vasopressin V1b receptor (Homo sapiens, UniProt P47901)
T1 sequence (P47901 whole entry): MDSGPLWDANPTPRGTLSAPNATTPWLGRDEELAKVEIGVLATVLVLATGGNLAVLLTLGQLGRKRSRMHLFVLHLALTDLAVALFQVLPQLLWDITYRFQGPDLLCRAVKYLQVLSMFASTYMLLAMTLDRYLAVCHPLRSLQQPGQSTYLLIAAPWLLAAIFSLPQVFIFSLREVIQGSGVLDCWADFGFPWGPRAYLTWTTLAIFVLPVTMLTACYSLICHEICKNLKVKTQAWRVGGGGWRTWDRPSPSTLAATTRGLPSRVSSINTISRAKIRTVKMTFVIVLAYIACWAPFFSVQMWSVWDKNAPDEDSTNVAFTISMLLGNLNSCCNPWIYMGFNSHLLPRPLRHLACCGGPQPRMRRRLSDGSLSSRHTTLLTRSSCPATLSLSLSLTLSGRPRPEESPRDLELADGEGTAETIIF
Assay: Binding Assay
Conditions: pH 7.4; 25 °C
Procedure: The nonspecific binding was determined with 1 μM AVP (Fluka 94836). All determinations were carried out as duplicate determinations. […] The liquid scintillation measurement took place in a Microbeta TriLux 12 (Wallac).

Row | Ki | SMILES
1 | in the range around 55 nM | CCOc1ccc(OC)c(C2(N3CC4(CN(C5CCN(C)CC5)C4)C3)C(=O)N(S(=O)(=O)c3ccc(OC)cc3OC)C3C=CC(C#N)=CC32)c1 (racemic) [US9688678, 2 (+-)-1-(2,4-dimethoxyphenyl)sulfonyl-3-(2-ethoxy-5-methoxy-phenyl)-3-[2-(1-methyl-4-piperidyl)-2,6-diazaspiro[3.3]heptan-6-yl]-2-oxo-indoline-5-carbonitrile]
2 | in the range around 55 nM | CCOc1ccc(OC)c(C2(N3CC4(CN(C5CCN(C)CC5)C4)C3)C(=O)N(S(=O)(=O)c3cccc4cccnc34)C3C=CC(C#N)=CC32)c1 (racemic) [US9688678, 3 (+-)-3-(2-ethoxy-5-methoxy-phenyl)-3-[2-(1-methyl-4-piperidyl)-2,6-diazaspiro[3.3]heptan-6-yl]-2-oxo-1-(8-quinolylsulfonyl)indoline-5-carbonitrile]
3 | in the range around 55 nM | CCOc1ccc(OC)cc1C1(N2CC3(CN(C4CCN(C)CC4)C3)C2)C(=O)N(S(=O)(=O)c2cc(C#N)ccn2)C2C=CC(C#N)=CC21 (racemic) [US9688678, 14 (+-)-1-(4-cyanophenyl)sulfonyl-3-(2-ethoxy-5-methoxy-phenyl)-3-[2-(1-methyl-4-piperidyl)-2,6-diazaspiro[3.3]heptan-6-yl]-2-oxo-indoline-5-carbonitrile]
4 | in the range around 55 nM | CCOc1ccc(OC)cc1C1(N2CC3(CN(C4CCN(C)CC4)C3)C2)C(=O)N(S(=O)(=O)c2cc(F)ccn2)C2C=CC(C#N)=CC21 (racemic) [US9688678, 16 (+-)-3-(2-ethoxy-5-methoxy-phenyl)-1-(4-fluorophenyl)sulfonyl-3-[2-(1-methyl-4-piperidyl)-2,6-diazaspiro[3.3]heptan-6-yl]-2-oxo-indoline-5-carbonitrile]
5 | < 1 nM | CCOc1ccc(OC)cc1C1(N2CC3(CN(N4CCN(C)CC4)C3)C2)C(=O)N(S(=O)(=O)c2ccc(OC)cn2)C2C=CC(C#N)=CC21 (racemic) [US9688678, 17 (+-)-3-(2-ethoxy-5-methoxy-phenyl)-1-[(5-methoxy-2-pyridyl)sulfonyl]-3-[2-(4-methylpiperazin-1-yl)-6-azaspiro[3.3]heptan-6-yl]-2-oxo-indoline-5-carbonitrile]
6 | < 1 nM | CCOc1ccc(OC)cc1C1(N2CC3(CN(C4CCN(C(C)C)CC4)C3)C2)C(=O)N(S(=O)(=O)c2ccc(OC)cn2)C2C=CC(C#N)=CC21 (racemic) [US9688678, 19 (+-)-3-(2-ethoxy-5-methoxy-phenyl)-3-[2-(1-isopropyl-4-piperidyl)-2,6-diazaspiro[3.3]heptan-6-yl]-1-[(5-methoxy-2-pyridyl)sulfonyl]-2-oxo-indoline-5-carbonitrile]
7 | < 1 nM | COc1ccc(S(=O)(=O)N2C(=O)C(c3cc(OC)ccc3OC)(N3CC4(CN(C5CCN(C)CC5)C4)C3)C3C=C(C#N)C=CC32)nc1 (racemic) [US9688678, 21 (+-)-3-(2,5-dimethoxyphenyl)-1-[(5-methoxy-2-pyridyl)sulfonyl]-3-[2-(1-methyl-4-piperidyl)-2,6-diazaspiro[3.3]heptan-6-yl]-2-oxo-indoline-5-carbonitrile]
8 | < 1 nM | CCOc1ccc(OC)cc1C1(N2CC3(CN(N4CCN(C)CC4)C3)C2)C(=O)N(S(=O)(=O)c2ccc(OC)cn2)C2C=CC(C#N)=CC21 (single isomer, unassigned; (+)) [US9688678, 17B (+)-3-(2-ethoxy-5-methoxy-phenyl)-1-[(5-methoxy-2-pyridyl)sulfonyl]-3-[2-(4-methylpiperazin-1-yl)-6-azaspiro[3.3]heptan-6-yl]-2-oxo-indoline-5-carbonitrile]
9 | < 1 nM | COc1ccc(S(=O)(=O)N2C(=O)C(c3cccnc3OC)(N3CC4(CN(C5CCN(C)CC5)C4)C3)C3C=C(C#N)C=CC32)nc1 (stereo not drawn) [US9688678, 9A (+)-3-(2-ethoxy-3-pyridyl)-1-[(5-methoxy-2-pyridyl)sulfonyl]-3-[2-(1-methyl-4-piperidyl)-2,6-diazaspiro[3.3]heptan-6-yl]-2-oxo-indoline-5-carbonitrile]
10 | < 1 nM | CCOc1ccc(OC)c(C2(N3CC4(CN(C5CCN(C6COC6)CC5)C4)C3)C(=O)N(S(=O)(=O)c3ccc(OC)cn3)C3C=CC(C#N)=CC32)c1 (stereo not drawn) [US9688678, 11 (+)-3-(2-ethoxy-5-methoxyphenyl)-1-((5-methoxypyridin-2-yl)sulfonyl)-3-(6-(1-(oxetan-3-yl)piperidin-4-yl)-2,6-diazaspiro[3.3]heptan-2-yl)-2-oxoindoline-5-carbonitrile]
11 | in the range around 55 nM | CCOc1cnc(OCC)c(C2(N3CC4(CN(C5CCN(C)CC5)C4)C3)C(=O)N(S(=O)(=O)c3cc(OC)ccn3)C3C=CC(C#N)=CC32)c1 (stereo not drawn) [US9688678, 12 (+-)-3-(2-ethoxy-3-pyridyl)-1-(4-methoxyphenyl)sulfonyl-3-[2-(1-methyl-4-piperidyl)-2,6-diazaspiro[3.3]heptan-6-yl]-2-oxo-indoline-5-carbonitrile]
12 | < 1 nM | COc1ccc(S(=O)(=O)N2C(=O)C(c3ccccc3OC)(N3CC4(CN(C5CCN(C)CC5)C4)C3)C3C=C(C#N)C=CC32)nc1 (stereo not drawn) [US9688678, 18 (+-)3-(2-methoxyphenyl)-1-[(5-methoxy-2-pyridyl)sulfonyl]-3-[2-(1-methyl-4-piperidyl)-2,6-diazaspiro[3.3]heptan-6-yl]-2-oxo-indoline-5-carbonitrile]
13 | < 1 nM | COc1ccc(S(=O)(=O)N2C(=O)C(c3ccccc3OC)(N3CC4(CN(C5CCN(C)CC5)C4)C3)C3C=C(C#N)C=CC32)nc1 (stereo not drawn) [US9688678, 18A (+)-3-(2-methoxyphenyl)-1-[(5-methoxy-2-pyridyl)sulfonyl]-3-[2-(1-methyl-4-piperidyl)-2,6-diazaspiro[3.3]heptan-6-yl]-2-oxo-indoline-5-carbonitrile]
14 | in the range around 5.5 nM | CCOc1ccc(OC)cc1C1(N2CC3(CN(C4CCN(C)CC4)C3)C2)C(=O)N(S(=O)(=O)c2ccc(OC)cn2)C2C=C(C#N)C=CC21 (stereo not drawn) [US9688678, 29 (+-)-3-(2-ethoxy-5-methoxy-phenyl)-1-[(5-methoxy-2-pyridyl)sulfonyl]-3-[2-(1-methyl-4-piperidyl)-2,6-diazaspiro[3.3]heptan-6-yl]-2-oxo-indoline-6-carbonitrile]
15 | in the range around 55 nM | CCOc1ccc(OC)cc1[C@]1(N2CC3(CN(C4CCN(C)CC4)C3)C2)C(=O)N(S(=O)(=O)c2cccc(OC)n2)C2C=CC(C#N)=CC21 (stereo partly drawn) [US9688678, 32 (3S)-3-(2-ethoxy-5-methoxy-phenyl)-1-[(6-methoxy-2-pyridyl)sulfonyl]-3-[2-(1-methyl-4-piperidyl)-2,6-diazaspiro[3.3]heptan-6-yl]-2-oxo-indoline-5-carbonitrile]
16 | < 1 nM | CCOc1ccc(OC)cc1[C@]1(N2CC3(CN(C4CCN(C)CC4)C3)C2)C(=O)N(S(=O)(=O)c2ccc(Cl)cn2)C2C=CC(C#N)=CC21 (stereo partly drawn) [US9688678, 34 (3S)-1-[(5-chloro-2-pyridyl)sulfonyl]-3-(2-ethoxy-5-methoxy-phenyl)-3-[2-(1-methyl-4-piperidyl)-2,6-diazaspiro[3.3]heptan-6-yl]-2-oxo-indoline-5-carbonitrile]
